This note sets out measurements from the kinase profiling compilation of Christmann-Franck et al. (2016).

What all share (assay): KINOMEscan competition binding
Details in all cases: compound 10.0 µM

Experiment [1] has as its target AAK1 (human) (UniProt Q2M2I8).
Experiment [2] addresses ACVR2B (human) (UniProt Q13705).
In experiment [3] the target is CAMK1D (human) (UniProt Q8IU85).
The target of experiment [4] is CDK16 (human) (UniProt Q00536).
For experiment [5], the target named is CLK1 (human) (UniProt P49759).
Experiment [6] addresses CLK4 (human) (UniProt Q9HAZ1).
The target in experiment [7] is CSNK2A2 (human) (UniProt P19784).
Chain of CSNK2A2 (human) (P19784 whole entry, looked up): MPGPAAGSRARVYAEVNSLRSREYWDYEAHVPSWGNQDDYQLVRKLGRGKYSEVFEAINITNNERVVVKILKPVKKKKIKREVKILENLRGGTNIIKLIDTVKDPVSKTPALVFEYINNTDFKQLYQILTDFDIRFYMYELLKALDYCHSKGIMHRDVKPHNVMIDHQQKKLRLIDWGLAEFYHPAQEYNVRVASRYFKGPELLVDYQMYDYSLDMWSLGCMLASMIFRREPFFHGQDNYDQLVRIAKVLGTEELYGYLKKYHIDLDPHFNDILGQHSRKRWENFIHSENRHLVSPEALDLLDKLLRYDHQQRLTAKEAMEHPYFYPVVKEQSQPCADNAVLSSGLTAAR
Experiment [8] deals with DAPK2 (human) (UniProt Q9UIK4).
The target of experiment [9] is DAPK3 (human) (UniProt O43293).
Chain of DAPK3 (human) (O43293 whole entry, looked up): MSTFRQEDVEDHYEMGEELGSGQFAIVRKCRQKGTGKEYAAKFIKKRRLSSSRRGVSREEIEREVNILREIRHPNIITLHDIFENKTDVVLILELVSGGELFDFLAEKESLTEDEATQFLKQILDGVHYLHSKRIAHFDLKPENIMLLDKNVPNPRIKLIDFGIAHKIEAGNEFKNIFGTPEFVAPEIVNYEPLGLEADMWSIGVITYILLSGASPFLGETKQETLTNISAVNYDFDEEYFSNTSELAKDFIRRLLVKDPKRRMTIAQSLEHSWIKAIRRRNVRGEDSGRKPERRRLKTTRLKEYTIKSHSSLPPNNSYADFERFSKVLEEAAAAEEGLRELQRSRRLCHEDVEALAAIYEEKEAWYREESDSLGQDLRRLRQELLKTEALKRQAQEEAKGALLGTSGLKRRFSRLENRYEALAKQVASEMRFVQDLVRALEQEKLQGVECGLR
Experiment [10] has as its target DYRK1B (human) (UniProt Q9Y463).
Experiment [11] deals with KIT (human), P10721 [V559D/V654A].
The target of experiment [12] is MAP2K4 (human) (UniProt P45985).
The target of experiment [13] is PIM3 (human) (UniProt Q86V86).
Experiment [14] addresses RAF1 (human) (UniProt P04049).
The target of experiment [15] is STK16 (human) (UniProt O75716).
Experiment [16] concerns the target TLK1 (human) (UniProt Q9UKI8).
For experiment [17], the target named is TNIK (human) (UniProt Q9UKE5).
Experiment [18] concerns EIF2AK4 KD2 (human), Q9P2K8 [S808G].
Chain of EIF2AK4 KD2 (human), Q9P2K8 [S808G] (Q9P2K8 whole entry S808G, looked up): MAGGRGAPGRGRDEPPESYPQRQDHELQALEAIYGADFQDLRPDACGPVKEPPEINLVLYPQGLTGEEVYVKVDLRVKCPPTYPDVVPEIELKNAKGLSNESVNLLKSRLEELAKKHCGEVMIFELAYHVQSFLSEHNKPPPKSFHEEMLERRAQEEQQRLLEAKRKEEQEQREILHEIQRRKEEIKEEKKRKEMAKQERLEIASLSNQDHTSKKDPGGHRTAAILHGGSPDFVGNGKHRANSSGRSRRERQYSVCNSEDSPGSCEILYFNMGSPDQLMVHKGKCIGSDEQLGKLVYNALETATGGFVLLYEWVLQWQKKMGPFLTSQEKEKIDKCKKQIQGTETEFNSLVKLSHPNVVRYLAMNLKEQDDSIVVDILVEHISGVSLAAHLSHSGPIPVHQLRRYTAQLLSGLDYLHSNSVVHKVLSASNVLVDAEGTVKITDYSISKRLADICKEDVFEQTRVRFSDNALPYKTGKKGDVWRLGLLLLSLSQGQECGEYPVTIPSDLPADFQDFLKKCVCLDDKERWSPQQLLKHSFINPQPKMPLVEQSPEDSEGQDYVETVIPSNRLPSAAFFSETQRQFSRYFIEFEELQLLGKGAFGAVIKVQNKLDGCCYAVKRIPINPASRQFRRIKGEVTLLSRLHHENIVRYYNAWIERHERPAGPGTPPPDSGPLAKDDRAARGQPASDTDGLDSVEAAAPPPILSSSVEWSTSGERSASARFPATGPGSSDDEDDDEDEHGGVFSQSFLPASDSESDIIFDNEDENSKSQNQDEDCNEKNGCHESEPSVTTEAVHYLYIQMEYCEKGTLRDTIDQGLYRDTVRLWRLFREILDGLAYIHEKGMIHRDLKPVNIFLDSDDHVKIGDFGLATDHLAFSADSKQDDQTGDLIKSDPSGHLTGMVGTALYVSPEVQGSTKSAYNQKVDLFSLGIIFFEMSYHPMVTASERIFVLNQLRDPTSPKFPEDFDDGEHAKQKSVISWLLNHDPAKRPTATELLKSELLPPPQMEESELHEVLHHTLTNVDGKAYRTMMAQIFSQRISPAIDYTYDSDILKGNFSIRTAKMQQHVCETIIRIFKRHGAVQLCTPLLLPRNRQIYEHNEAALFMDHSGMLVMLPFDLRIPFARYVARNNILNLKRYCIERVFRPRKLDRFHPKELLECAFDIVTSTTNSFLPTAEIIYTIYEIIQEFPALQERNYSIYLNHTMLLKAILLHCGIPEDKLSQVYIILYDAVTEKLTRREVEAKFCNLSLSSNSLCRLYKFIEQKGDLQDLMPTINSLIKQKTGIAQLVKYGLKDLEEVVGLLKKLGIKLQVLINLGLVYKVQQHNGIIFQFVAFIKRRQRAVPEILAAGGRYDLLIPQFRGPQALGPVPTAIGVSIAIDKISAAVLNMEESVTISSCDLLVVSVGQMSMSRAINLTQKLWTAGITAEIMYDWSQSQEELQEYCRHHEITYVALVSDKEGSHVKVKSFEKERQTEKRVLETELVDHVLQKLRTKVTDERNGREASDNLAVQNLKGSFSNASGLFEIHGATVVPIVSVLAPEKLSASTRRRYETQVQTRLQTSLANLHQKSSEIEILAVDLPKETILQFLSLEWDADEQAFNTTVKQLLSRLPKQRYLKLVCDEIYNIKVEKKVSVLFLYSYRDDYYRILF
For experiment [19], the target named is MAP3K5 (human) (UniProt Q99683).
In experiment [20] the target is TAOK1 (human) (UniProt Q7L7X3).
Chain of TAOK1 (human) (Q7L7X3 whole entry, looked up): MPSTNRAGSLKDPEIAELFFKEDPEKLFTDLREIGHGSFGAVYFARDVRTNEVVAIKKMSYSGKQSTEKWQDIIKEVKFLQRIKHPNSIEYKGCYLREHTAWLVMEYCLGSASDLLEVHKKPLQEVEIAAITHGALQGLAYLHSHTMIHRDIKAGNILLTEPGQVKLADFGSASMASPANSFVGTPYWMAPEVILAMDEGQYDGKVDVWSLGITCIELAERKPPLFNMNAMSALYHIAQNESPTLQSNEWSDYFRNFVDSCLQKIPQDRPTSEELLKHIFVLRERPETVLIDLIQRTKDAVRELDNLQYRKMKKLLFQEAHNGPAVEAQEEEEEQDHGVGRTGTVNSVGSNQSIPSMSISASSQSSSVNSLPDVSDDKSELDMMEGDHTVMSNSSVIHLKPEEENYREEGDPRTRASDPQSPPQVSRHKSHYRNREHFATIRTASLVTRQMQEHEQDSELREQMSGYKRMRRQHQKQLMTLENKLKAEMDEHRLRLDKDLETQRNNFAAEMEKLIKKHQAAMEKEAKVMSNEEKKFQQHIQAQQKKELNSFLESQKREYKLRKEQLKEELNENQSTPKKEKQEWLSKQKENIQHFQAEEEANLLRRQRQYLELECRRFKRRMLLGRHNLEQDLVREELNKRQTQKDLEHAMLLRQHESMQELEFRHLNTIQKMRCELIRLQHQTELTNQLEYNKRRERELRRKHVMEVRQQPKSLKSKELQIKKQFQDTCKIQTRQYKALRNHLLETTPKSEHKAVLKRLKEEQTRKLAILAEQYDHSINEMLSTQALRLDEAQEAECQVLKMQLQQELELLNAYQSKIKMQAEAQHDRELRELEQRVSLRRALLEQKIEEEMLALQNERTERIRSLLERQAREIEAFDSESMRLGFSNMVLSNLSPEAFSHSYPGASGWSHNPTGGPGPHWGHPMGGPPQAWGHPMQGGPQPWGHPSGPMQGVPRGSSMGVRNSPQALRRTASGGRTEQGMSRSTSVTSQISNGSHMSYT
In experiment [21] the test system is EGFR (human), P00533 [747-751 del / S ins].
The subject of experiment [22] is EGFR (human), P00533 [G719C; 746-750 del].
The target of experiment [23] is MELK (human) (UniProt Q14680).
In experiment [24] the target is NLK (human) (UniProt Q9UBE8).
The subject of experiment [25] is PIK3CA (human), P42336 [E545K].
Experiment [26] addresses SIK2 (human) (UniProt Q9H0K1).
Experiment [27] deals with RPS6KA1 KD1 (human) (UniProt Q15418).
Experiment [28] has as its target CDK2 (human) (UniProt P24941).

Chain of CDK16 (human) (Q00536 whole entry, looked up): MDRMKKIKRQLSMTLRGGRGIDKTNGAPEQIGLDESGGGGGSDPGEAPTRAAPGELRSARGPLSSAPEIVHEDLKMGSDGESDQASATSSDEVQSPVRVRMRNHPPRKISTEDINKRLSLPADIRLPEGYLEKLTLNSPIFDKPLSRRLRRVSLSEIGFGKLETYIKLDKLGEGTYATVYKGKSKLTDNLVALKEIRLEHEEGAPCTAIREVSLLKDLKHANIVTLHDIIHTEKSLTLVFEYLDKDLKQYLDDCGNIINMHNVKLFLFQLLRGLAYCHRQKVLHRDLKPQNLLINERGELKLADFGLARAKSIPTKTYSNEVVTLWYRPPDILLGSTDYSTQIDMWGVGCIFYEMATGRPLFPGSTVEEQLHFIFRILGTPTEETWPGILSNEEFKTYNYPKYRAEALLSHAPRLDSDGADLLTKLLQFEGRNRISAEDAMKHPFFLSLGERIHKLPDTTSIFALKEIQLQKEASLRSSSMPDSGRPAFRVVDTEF
Chain of TLK1 (human) (Q9UKI8 whole entry, looked up): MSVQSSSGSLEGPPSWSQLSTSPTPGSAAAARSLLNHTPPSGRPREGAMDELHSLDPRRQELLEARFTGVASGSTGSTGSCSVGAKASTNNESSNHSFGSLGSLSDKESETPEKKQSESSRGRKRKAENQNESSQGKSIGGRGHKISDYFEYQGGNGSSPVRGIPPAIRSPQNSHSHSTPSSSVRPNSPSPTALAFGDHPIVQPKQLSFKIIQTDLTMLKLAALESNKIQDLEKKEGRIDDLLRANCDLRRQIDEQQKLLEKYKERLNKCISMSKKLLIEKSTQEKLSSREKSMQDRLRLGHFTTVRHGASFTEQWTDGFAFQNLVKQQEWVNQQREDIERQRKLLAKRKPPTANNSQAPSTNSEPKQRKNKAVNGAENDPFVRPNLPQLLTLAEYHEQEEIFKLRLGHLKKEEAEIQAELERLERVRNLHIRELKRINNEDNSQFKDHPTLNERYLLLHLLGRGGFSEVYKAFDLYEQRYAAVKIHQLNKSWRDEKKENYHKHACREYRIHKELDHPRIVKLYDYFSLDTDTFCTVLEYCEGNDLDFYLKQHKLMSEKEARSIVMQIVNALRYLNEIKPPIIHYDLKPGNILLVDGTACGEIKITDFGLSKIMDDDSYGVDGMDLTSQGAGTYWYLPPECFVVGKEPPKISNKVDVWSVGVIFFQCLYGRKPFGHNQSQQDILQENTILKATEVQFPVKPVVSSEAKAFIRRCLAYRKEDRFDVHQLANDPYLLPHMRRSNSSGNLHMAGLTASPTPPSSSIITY

Consider `O=C1NC(=S)S/C1=C\c1ccc(-c2cncc3ccccc23)o1`, for which the kinase still bound, per cent of control worked out at 4.7% in experiment [1]; 25% in experiment [2]; 28% in experiment [3]; 5.2% in [4]; 5.6% in experiment [5]; 6.1% in [6]. Further, the kinase still bound, per cent of control amounted to 5.6% in experiment [7]; 9.3% in [8]; 7.4% in experiment [9]; 13% in experiment [10]; 23% in experiment [11]; 20% in experiment [12]. Besides, the kinase still bound, per cent of control turned out to be 2.7% in [13]; 25% in [14]; 9.8% in experiment [15]; 5.8% in experiment [16]; 11% in [17].

`CS(=O)(=O)Nc1ccc(-c2cc(/C=C3\SC(=N)NC3=O)c[nH]c2=O)cc1`: the kinase still bound, per cent of control in experiment [1] was 7.6%; in experiment [2], 12%; in experiment [5] it was 1.6%; in experiment [6] it was 6%; in experiment [7], 3.4%; in [8] it was 2.2%. The kinase still bound, per cent of control stood at 4.4% in experiment [9]; 3.2% in experiment [10]; 25% in [18]; 4.6% in experiment [19]; 6.1% in [13]; 23% in experiment [20].

Take `CS(=O)(=O)Nc1ccc(-c2ncc(/C=C3\SC(=N)NC3=O)s2)cc1`: the kinase still bound, per cent of control in experiment [1] is 13%; in experiment [2], 16%; in [8], 3.2%; in experiment [9], 6.9%; in experiment [10] it was 3.1%; in [13] it was 2%. The molecule further registered a kinase still bound, per cent of control in [17] of 16%.

As for `Nc1cccc(-c2cc(/C=C3\SC(=O)NC3=O)c[nH]c2=O)c1`, the kinase still bound, per cent of control stood at 1.8% in experiment [1]; 10% in experiment [2]; 2.1% in experiment [5]; 16% in experiment [6]; 9.6% in experiment [7]; 0.2% in [8]. Also, the kinase still bound, per cent of control in experiment [9] is 0.6%; in [10] it was 0.4%; in experiment [21], 4.8%; in experiment [22] it was 30%; in [18], 0.6%; in experiment [23] it was 30%. Further, the kinase still bound, per cent of control in experiment [13] worked out at 5.4%; in experiment [15], 9.3%; in experiment [20] it was 21%.

On to `CS(=O)(=O)Nc1ccc(-c2cncc(/C=C3\SC(=N)NC3=O)c2)cc1`, for which the kinase still bound, per cent of control in [1] was 32%; in experiment [2], 4.2%; in [8], 14%; in [9] it was 25%; in [10], 17%; in experiment [21] it was 24%. Further, the kinase still bound, per cent of control in experiment [24] worked out at 24%; in experiment [25] it was 22%; in experiment [26] it was 24%; in [20], 1.4%; in [16] it was 26%; in experiment [17] it was 19%.

`N=C1NC(=O)/C(=C/c2ccc(-c3cncc4ccccc34)o2)S1`: the kinase still bound, per cent of control in [1] was found to be 1.1%; in [2], 7.6%; in experiment [3], 9%; in experiment [4], 9.8%; in experiment [5] it was 2%; in experiment [6], 2.8%. Besides, the kinase still bound, per cent of control came out at 5.1% in experiment [7]; 7.4% in experiment [8]; 6.2% in experiment [9]; 11% in [10]; 0.7% in [18]; 23% in [11]. The kinase still bound, per cent of control is 28% in experiment [23]; 1.6% in experiment [13]; 30% in [27]; 27% in [26]; 2.6% in experiment [15]; 10% in experiment [20]. The results for the kinase still bound, per cent of control in experiment [16] and in experiment [17] were 28% and 8%, respectively.

Consider `N=C1NC(=O)/C(=C/c2ccc(-c3ccccc3O)o2)S1`, for which the kinase still bound, per cent of control was 8.2% in experiment [1]; 15% in experiment [2]; 0.15% in experiment [4]; 20% in [28]; 3.4% in experiment [5]; 5.2% in experiment [6]. Also, the kinase still bound, per cent of control in [7] was determined as 17%; in experiment [8], 3.2%; in experiment [9] it was 7.4%; in experiment [10], 1.8%; in experiment [21], 31%; in experiment [12], 16%. The kinase still bound, per cent of control in experiment [19] was 19%; in [25], 21%; in experiment [13], 2.1%; in experiment [20] it was 0%.

As to `CSC1=NC(=O)/C(=C/c2c[nH]c(=O)c(-c3ccc(NS(C)(=O)=O)cc3)c2)S1`, the kinase still bound, per cent of control is 6.2% in experiment [1]; 18% in experiment [5]; 6.2% in experiment [7]; 3.6% in experiment [8]; 6.2% in [9]; 15% in [10]. Also, the kinase still bound, per cent of control in [18] came to 16%; in [12] it was 10%; in experiment [13], 16%; in experiment [15] it was 21%.

With `N=C1NC(=O)/C(=C/c2c[nH]c(=O)c(-c3ccc(N4CCNCC4)nc3)c2)S1`, the kinase still bound, per cent of control in experiment [1] came to 12%; in [5] it was 3.5%; in experiment [6], 16%; in experiment [7] it was 32%; in [8], 2.3%; in experiment [9], 4.7%. Also, the kinase still bound, per cent of control in [10] was 1%; in experiment [18] it was 1.4%; in experiment [23], 27%; in experiment [13], 8%; in experiment [20] it was 32%; in experiment [17], 18%.

`N=C1NC(=O)/C(=C/c2ccc(-c3csc4ccccc34)o2)S1`: the kinase still bound, per cent of control turned out to be 10% in experiment [2]; 20% in [5]; 25% in experiment [6]; 11% in experiment [7]; 14% in experiment [8]; 29% in experiment [9]. The kinase still bound, per cent of control in [10] was found to be 25%; in [18] it was 33%; in experiment [11], 24%; in experiment [13], 5.4%; in [14], 33%; in experiment [20], 18%. This molecule yielded a kinase still bound, per cent of control in experiment [16] of 11%.
